Our source for the melting point values is patent US6596741B2, “Biaryl ether derivatives useful as monoamine reuptake inhibitors” (Pfizer Inc, priority 1999, dated 2003).

Where a name gives a salt, the structure may show the parent alone.

In general, melting point refers to the temperature, or range, at which the solid turns liquid. Turning to `CNCc1ccc(-c2ccco2)cc1Oc1ccc(Cl)c(Cl)c1` (hydrate or solvate) [Example 7, [2-(3,4-Dichlorophenoxy)-4-furan-2-ylbenzyl]-methylamine], the melting point is 129 to 134 °C.

`CNCc1cc(-c2ccsc2)ccc1Oc1ccc(Cl)c(Cl)c1` (as salt: HCl) [Example 8, [2-(3,4-Dichlorophenoxy)-5-thiophen-3-ylbenzyl]-methylamine] registered a melting point of 169 to 172 °C.

For `CNCc1ccc(-c2cccs2)cc1Oc1ccc(Cl)c(Cl)c1` (as salt: HCl) [Example 11, [2-(3,4-Dichlorophenoxy)-4-thiophen-2-ylbenzyl]-methylamine], the melting point was 180 to 183 °C.

`CNCc1cc(N2CCCC2=O)ccc1Oc1ccc(Cl)c(Cl)c1` (as salt: HCl) [Example 19, 1-[4-(3,4-Dichlorophenoxy)-3-(methylaminomethyl)phenyl]-pyrrolidin-2-one] gave a melting point of 166 to 170 °C.

Consider `CNCc1cc(-c2cccs2)ccc1Oc1ccc(Cl)c(Cl)c1` (as salt: HCl) [Example 10, [2-(3,4-Dichlorophenoxy)-5-thiophen-2-ylbenzyl]-methylamine], for which the melting point was 207 to 209 °C.

For `CNCc1ccc(-c2ccccc2)cc1Oc1ccc(Cl)c(Cl)c1` (as salt: HCl) [Example 2, [3-(3,4-Dichlorophenoxy)-biphenyl-4-ylmethyl]-methylamine], the melting point was in the range of 186 to 194 °C.

With `CNCc1ccc(-c2ccsc2)cc1Oc1ccc(Cl)c(Cl)c1` (as salt: HCl) (hydrate or solvate) [Example 9, [2-(3,4-Dichlorophenoxy)-4-thiophen-3-ylbenzyl]-methylamine], the melting point lay in the range of 181 to 184 °C.

`CNCc1cc(-c2cccnc2)ccc1Oc1ccc(Cl)c(Cl)c1` (as salt: HCl) [Example 13, [2-(3,4-Dichlorophenoxy)-5-pyridin-3-ylbenzyl]-methylamine]: the melting point lay within 168 to 171 °C.

`CNCc1cc(-c2ccc(C)cc2)ccc1Oc1ccc(Cl)c(Cl)c1` (as salt: HCl) (hydrate or solvate) [Example 3, [4-(3,4-Dichlorophenoxy)-4′-methyl-biphenyl-3-ylmethyl]-methylamine] gave a melting point of 208 to 210 °C.

Take `CNCc1cc(-c2ccncc2)ccc1Oc1ccc(Cl)c(Cl)c1` (as salt: HCl) (hydrate or solvate) [Example 14, [2-(3,4-Dichlorophenoxy)-5-pyridin-4-ylbenzyl]-methylamine]: the melting point lay in the range of 179 to 181 °C.

As to `CNCc1cc(-n2ccc(N)n2)ccc1Oc1ccc(Cl)c(Cl)c1.Cl.Cl`, the melting point was 225 to 233 °C.

With `CNC(C)c1cc(N2CCCC2=O)ccc1Oc1ccc(Cl)c(Cl)c1.Cl` (stereo not shown), the melting point fell in the range of 195 to 200 °C.

In the case of `CNCc1cc(-c2ccco2)ccc1Oc1ccc(Cl)c(Cl)c1` (as salt: HCl) (hydrate or solvate) [Example 6, [2-(3,4-Dichlorophenoxy)-5-furan-2-ylbenzyl]-methylamine], the melting point is 188 to 191 °C.
